Results reported in PMC11249953, “c-KIT inhibitors reduce pathology and improve behavior in the Tg(SwDI) model of Alzheimer’s disease” (Life Science Alliance, 2024).

What was measured:
[1] = target: T1, MEK5 (Homo sapiens, UniProt Q13163); assay: KINOMEscan competition binding, MEK5; conditions: 10 µM compound; for remaining binding at 10 µM: lower = stronger binding, read-out: MEK5 %Ctrl @ 10000nM (POC)
T1 construct: DNA label for qPCR read-out (T7 phage fusion or DNA tag); purchased Eurofins DiscoverX Corporation; host or cells: T7 phage in E. coli (BL21-derived) or HEK-293
T1 sequence (Q13163 1-448): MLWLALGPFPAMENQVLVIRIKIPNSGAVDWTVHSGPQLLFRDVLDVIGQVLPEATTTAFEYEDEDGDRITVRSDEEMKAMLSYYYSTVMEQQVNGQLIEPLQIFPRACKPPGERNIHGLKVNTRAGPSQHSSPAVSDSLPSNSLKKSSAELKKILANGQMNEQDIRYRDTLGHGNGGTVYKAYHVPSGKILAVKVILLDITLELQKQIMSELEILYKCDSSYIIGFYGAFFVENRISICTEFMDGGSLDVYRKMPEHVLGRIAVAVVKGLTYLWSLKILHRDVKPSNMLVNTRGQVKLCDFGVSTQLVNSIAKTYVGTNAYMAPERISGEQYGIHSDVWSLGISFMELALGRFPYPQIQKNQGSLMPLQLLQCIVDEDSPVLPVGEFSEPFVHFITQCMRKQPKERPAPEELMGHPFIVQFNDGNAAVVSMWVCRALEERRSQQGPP
Method: (§1) The KINOMEscan screening platform (Eurofins DiscoverX Corporation) was performed using active site-directed competition binding assay to quantitatively measure interactions between BK40143 and BK40197 and more than 450 human kinases and disease relevant mutant variants. […] Screening “hits” are identified by measuring the amount of kinase captured in test (BK40143 and BK40197) versus control samples by using a quantitative and ultra-sensitive qRT-PCR method that detects the associated DNA label. BK40143 and BK40197 were screened at 10 µM concentration, and results for primary screen binding interactions were reported as “% Ctrl” (POC), where lower numbers indicate stronger hits and calculated as follows: [test compound signal−positive control signal/negative control signal−positive control signal]×100
(§2) negative control = DMSO (100% Ctrl)
(§3) positive control = control compound (0% Ctrl)
(§4) Based on screening data from of profiled compounds, a proportional relationship between primary screening results and corresponding compound/target affinities can be described as binding constants (Kd values) for the indicated ranges of POC values with tighter binding (higher affinity) interactions associated with lower POC values and weaker binding (lower affinity) associated with higher POC values. Briefly, kinase-tagged T7 phage strains were grown in parallel in 24-well blocks in an E. coli host derived from the BL21 strain. E. coli were grown to log-phase and infected with T7 phage from a frozen stock (multiplicity of infection = 0.4) and incubated with shaking at 32°C until lysis (90–150 min). The lysates were centrifuged (6,000g) and filtered (0.2 μm) to remove cell debris. The remaining kinases were produced in HEK-293 cells and subsequently tagged with DNA for qRT-PCR detection. Streptavidin-coated magnetic beads were treated with biotinylated small molecule ligands for 30 min at RT to generate affinity resins for kinase assays. The liganded beads were blocked with excess biotin and washed with blocking buffer (1% BSA, 0.05% Tween 20, 1 mM DTT; SeaBlock [Pierce]) to remove unbound ligand and to reduce non-specific phage binding. Binding reactions were assembled by combining kinases, liganded affinity beads, and test compounds in 1x binding buffer (20% 0.17x PBS, 0.05% Tween 20, 6 mM DTT; SeaBlock). Test compounds were prepared as 100x stocks in 100% DMSO and directly diluted into the assay. All reactions were performed in polypropylene 384-well plates in a final volume of 0.02 ml. The assay plates were incubated at RT with shaking for 1 h and the affinity beads were washed with wash buffer (1x PBS, 0.05% Tween 20). […] The kinase concentration in the eluates was measured by qRT-PCR.

[2] = target: T2, ULK3 (Homo sapiens, UniProt Q6PHR2); assay: KINOMEscan competition binding, ULK3; conditions: 10 µM compound; for remaining binding at 10 µM: lower = stronger binding, read-out: ULK3 %Ctrl @ 10000nM (POC)
T2 construct: DNA label for qPCR read-out (T7 phage fusion or DNA tag); purchased Eurofins DiscoverX Corporation; host or cells: T7 phage in E. coli (BL21-derived) or HEK-293
T2 sequence (Q6PHR2 1-472): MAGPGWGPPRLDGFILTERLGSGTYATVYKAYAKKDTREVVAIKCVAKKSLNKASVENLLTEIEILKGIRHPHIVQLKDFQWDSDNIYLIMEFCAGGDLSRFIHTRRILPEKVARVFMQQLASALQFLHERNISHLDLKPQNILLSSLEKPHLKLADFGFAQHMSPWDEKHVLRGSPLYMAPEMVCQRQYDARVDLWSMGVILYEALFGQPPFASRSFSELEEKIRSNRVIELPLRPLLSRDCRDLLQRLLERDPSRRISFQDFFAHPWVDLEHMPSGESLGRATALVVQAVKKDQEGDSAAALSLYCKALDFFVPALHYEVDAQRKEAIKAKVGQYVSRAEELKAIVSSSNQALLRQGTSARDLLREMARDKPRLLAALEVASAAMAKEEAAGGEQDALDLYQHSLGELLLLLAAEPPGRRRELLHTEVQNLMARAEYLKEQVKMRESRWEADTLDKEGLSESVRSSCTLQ
Method: as §1, §2, §3, §4

[3] = tested on: microglial PAR2-tryptase interactions in TgAPP mice; assay: Proximity ligation assay PAR2-tryptase; assay type: in vivo, mouse; conditions: vs DMSO
Method: Slides containing two consecutive brain slices were blocked in Duolink blocking solution for 1 h in a slide chamber containing water at 37°C. Blocking solution was then removed and PAR2 (1:250) and tryptase (1:250) primary antibodies were added at the concentrations specified above and incubated at 4°C overnight. The next day, primaries were removed and slides were washed twice for 5 min in wash buffer before addition of plus and minus probes for incubation at 37°C in a humid chamber for 1 h. Slides were then washed again twice for 5 min in wash buffer before addition of ligation buffer for incubation at 37°C in a humid chamber for 30 min. Next, slides were washed twice for 5 min in wash buffer, and polymerase was added for incubation at 37°C in a humid chamber for 100 min. Finally, slides were washed twice for 10 min in wash buffer and mounted using DAPI mounting medium and a glass coverslip. Slides were imaged on a Leica Dmi8 light microscope.

[4] = tested on: WT mice (C57BL/6); assay: Drug tolerability assessment (multiple ascending dose); assay type: in vivo; conditions: for maximum tolerable dose: IP daily, multiple ascending dose, WT mice; for therapeutic safe dose in animals: both, C57BL/6, mouse
Method: 3–4-mo-old WT mice (male and female, C57BL/6) were IP injected with starting doses of 10 mg/kg of BK40143 or BK40197 daily for 5 d before a 2-d washout period. […] BK40197 dosage was increased in 10 mg/kg increments for 5 d each until the maximum tolerable dose of 50 mg/kg was reached. All animal work was approved by GUACUC.

[5] = target: T3, SRC (Homo sapiens, UniProt P12931); assay: KINOMEscan competition binding, SRC; conditions: 10 µM compound; for remaining binding at 10 µM: lower = stronger binding, read-out: SRC %Ctrl @ 10000nM (POC)
T3 construct: DNA label for qPCR read-out (T7 phage fusion or DNA tag); purchased Eurofins DiscoverX Corporation; host or cells: T7 phage in E. coli (BL21-derived) or HEK-293
T3 sequence (P12931 whole entry, the tested form may be a part): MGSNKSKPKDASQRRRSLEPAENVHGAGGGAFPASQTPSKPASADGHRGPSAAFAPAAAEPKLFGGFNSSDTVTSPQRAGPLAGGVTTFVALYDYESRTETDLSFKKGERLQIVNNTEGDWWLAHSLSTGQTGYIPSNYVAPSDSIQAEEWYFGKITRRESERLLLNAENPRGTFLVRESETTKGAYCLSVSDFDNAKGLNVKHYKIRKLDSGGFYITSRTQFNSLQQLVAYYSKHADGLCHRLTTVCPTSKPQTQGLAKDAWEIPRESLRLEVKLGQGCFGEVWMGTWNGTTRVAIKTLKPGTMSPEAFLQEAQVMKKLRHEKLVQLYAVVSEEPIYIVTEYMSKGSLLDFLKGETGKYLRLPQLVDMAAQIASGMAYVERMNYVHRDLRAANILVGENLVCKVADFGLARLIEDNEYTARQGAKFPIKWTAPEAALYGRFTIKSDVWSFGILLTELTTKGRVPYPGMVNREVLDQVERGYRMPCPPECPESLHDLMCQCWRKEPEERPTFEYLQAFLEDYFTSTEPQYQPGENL
Method: as §1, §2, §3, §4

[6] = target: T4, IRAK1 (Homo sapiens, UniProt P51617); assay: KINOMEscan competition binding, IRAK1; conditions: 10 µM compound; for remaining binding at 10 µM: lower = stronger binding, read-out: IRAK1 %Ctrl @ 10000nM (POC)
T4 construct: DNA label for qPCR read-out (T7 phage fusion or DNA tag); purchased Eurofins DiscoverX Corporation; host or cells: T7 phage in E. coli (BL21-derived) or HEK-293
T4 sequence (P51617 whole entry, the tested form may be a part): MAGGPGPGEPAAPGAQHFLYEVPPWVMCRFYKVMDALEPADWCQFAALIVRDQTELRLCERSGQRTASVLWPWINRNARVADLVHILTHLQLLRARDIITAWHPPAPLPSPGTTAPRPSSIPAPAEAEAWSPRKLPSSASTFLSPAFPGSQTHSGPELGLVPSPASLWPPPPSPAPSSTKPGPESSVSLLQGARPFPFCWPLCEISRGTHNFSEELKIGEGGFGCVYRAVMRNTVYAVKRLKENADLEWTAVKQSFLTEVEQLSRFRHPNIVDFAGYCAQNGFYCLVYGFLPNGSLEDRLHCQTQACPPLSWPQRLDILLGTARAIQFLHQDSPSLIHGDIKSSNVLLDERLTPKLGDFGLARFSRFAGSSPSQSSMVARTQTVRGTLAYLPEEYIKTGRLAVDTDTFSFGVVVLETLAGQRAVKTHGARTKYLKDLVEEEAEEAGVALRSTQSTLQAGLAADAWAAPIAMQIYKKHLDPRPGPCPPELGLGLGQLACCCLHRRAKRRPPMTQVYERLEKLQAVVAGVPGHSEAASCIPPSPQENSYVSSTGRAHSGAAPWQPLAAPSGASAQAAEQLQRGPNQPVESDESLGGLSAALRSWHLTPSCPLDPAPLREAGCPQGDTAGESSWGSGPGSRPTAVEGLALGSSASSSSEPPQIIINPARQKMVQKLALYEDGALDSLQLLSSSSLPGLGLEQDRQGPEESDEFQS
Method: as §1, §2, §3, §4

[7] = target: T5, FYN (Homo sapiens, UniProt P06241); assay: KINOMEscan competition binding, FYN; conditions: 10 µM compound; for remaining binding at 10 µM: lower = stronger binding, read-out: FYN %Ctrl @ 10000nM
T5 construct: DNA label for qPCR read-out (T7 phage fusion or DNA tag); purchased Eurofins DiscoverX Corporation; host or cells: T7 phage in E. coli (BL21-derived) or HEK-293
T5 sequence (P06241 whole entry, the tested form may be a part): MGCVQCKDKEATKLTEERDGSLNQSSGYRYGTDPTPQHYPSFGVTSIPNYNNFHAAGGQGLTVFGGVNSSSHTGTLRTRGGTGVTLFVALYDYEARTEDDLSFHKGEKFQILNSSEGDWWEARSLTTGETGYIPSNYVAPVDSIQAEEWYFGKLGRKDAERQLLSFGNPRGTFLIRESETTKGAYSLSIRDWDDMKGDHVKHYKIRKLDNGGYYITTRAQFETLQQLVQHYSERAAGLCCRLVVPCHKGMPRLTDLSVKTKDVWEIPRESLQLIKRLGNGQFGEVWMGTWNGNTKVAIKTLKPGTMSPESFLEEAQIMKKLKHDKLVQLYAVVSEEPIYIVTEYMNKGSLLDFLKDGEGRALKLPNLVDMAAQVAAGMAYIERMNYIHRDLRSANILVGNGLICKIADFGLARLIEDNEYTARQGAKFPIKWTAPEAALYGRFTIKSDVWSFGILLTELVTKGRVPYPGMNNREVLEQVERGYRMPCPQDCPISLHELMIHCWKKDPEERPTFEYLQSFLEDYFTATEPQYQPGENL
Method: as §1, §2, §3, §4

Row | SMILES | inhibition at 10 µM [1] [%] | remaining binding at 10 µM [1] [%] | inhibition at 10 µM [2] [%] | remaining binding at 10 µM [2] [%] | mast cell tryptase / microglial PAR2-tryptase interactions (proximity ligation) [3] | maximum tolerable dose [4] [mg/kg] | therapeutic safe dose in animals ([4]; in vivo) | inhibition at 10 µM [5] [%] | remaining binding at 10 µM [5] [%] | inhibition at 10 µM [6] [%] | remaining binding at 10 µM [6] [%] | inhibition at 10 µM [7] [%] | remaining binding at 10 µM [7] [%] | tolerability at starting dose ([4]; mouse, in vivo)
1 | Cc1cccc(-c2cc3nccc(N4CCOCC4)c3s2)c1 [BK40197] | 93.1 | 6.9 | 93.9 | 6.1 | reduced mast cell mediators such as tryptase | 45 | ≤ 45 mg/kg | 19 | 81 | 94.7 | 5.3 | 44 | 56 | 
2 | Cc1cccc(-c2cc3nccc(Nc4ccccc4)c3s2)c1 [BK40143] | 99.7 | 0.35 | 90.2 | 9.8 | reduced mast cell mediators such as tryptase | 7.5 | up to 7.5 mg/kg | 84.7 | 5.3 | 54 | 46 | 90 | 10 | rodent mortality
